Test results reported in patent publication US4892883A, “Pharmaceutical compositions containing bilobalide for the treatment of neuropathies Ai” (Willman - Schwabe GmbH & Co., priority 1973, dated 1990).
Where two headings read alike, the source gives them in different places.

How the values were obtained:
[1] = tested on: spontaneous climbing behaviour (SCB) of mice; experiment: Spontaneous climbing behaviour (SCB) of mice (Table X); type: in vivo, mouse (NMRI); details: for influence of antagonists on the SCB activity of extract and Physostigmine: Scopolamine, Sulpiride, Naloxone, other receptor antagonists; for Mean climbing score, animal: M ± SD
Description: In one of these experiments the influence of the extract on the spontaneous climbing behaviour (SCB) was examined according to the method described by Marcais et al. (Psychopharmacology; 56, 233-234, 1978).
*The substances were applied 20 min before the observation period (30
min). In the combination experiments, the second substance was
administered 5 min before the first substance.

[2] = tested on: Oxotremorine induced hypothermia, tremor and salivation in mice; experiment: Oxotremorine induced hypothermia, tremor and salivation (Table XIII); type: in vivo, mouse (NMRI); details: for Hypothermia: M ± SD
Description: (§1) The analgesia tests were carried out according to the hotplate test (J. Pharm. Pharmacol., 9, 381, 1957) and the tests for hypothermia, tremor and salivation according to the method described by Gouret (J. Pharmacol., 4, 105-128, 1973). Subsequently, the mice were treated with extract and Physostigmine etc., in a manner similar to the method described above in connection with the hypoxia tests.

[3] = tested on: mice; experiment: Influence on anti-hypoxic effects of Pilocarpine and Physostigmine (Table XI); type: in vivo, mouse (NMRI); details: for Survival time, treated animals: M ± SEM
Description: The protective actions of the extract against hypoxia were compared in a Hypobare-Hypoxia model, according to a method described by Nakanishi et al (Life Sci 13, 467-478, 1973). 4 mice (2 control animals and 2 treated animals) were put into a vacuum desiccator (3.51). A negative pressure of 170 mmHg was generated therein within 20 sec. The survival times of the animals under these hypoxia conditions were determined. The test substance was administered intraperitoneally in an aqueous solution 30 min before the experiment began. The control animals were only treated with solvents. The maximum observation period of the survival times was 8 min. The survival time of the treated animals tolerating the hypoxia condition longer than this period was assumed to be 480 sec. None of the control animals survived longer than 180 sec. The percentage of the treated animals surviving longer than 3 min was defined as %-effect of the extract.
The anti-hypoxic effects of the cholinomimetics Pilocarpine and the acetylcholine-esterase inhibitor Physostigmine entering the brain are known. […] The method applied for these experiments was similar to the above-described Hypobare-Hypoxia model. Groups of mice were treated orally with an aqueous suspension of the extract (or with water). Pilocarpine and Physostigmine, respectively (or water) were administered 30 min later. The hypoxia tests were carried out 30 min after the second application.

[4] = tested on: mice; experiment: Analgetic effect, hotplate test (Table XII); type: in vivo, mouse (NMRI); details: for Latent period: M ± SD
Description: as §1
A The percentage of animals having a latent period of more than 60 sec.

[5] = tested on: brain and nerves; details: brain of many species, including humans; cited from earlier work
[6] = tested on: brain and nerves; details: brain of various species; cited from earlier work
[7] = Test 1, Physostigmine 0.1 mg/kg s.c.
[8] = Test 1, Physostigmine 0.2 mg/kg s.c.

## C=CCN1CC[C@]23c4c5ccc(O)c4O[C@H]2C(=O)CC[C@@]3(O)[C@H]1C5 [Naloxone]
[1]
  influence of antagonists on the SCB activity of extract and Physostigmine: do not influence the effects of Physostigmine and the extract

## O=C1CCCN1CC#CCN1CCCC1 [Oxotremorine]
[2]; Oxotremorine 0.1 mg/kg i.p.
  Salivation: 60%
  Tremor: 0%
  Hypothermia: 2.5 ± 0.82 °C
[2]; Oxotremorine 0.2 mg/kg i.p.
  Salivation: 100%
  Tremor: 50%
  Hypothermia: 5.23 ± 1.19 °C

## CNC(=O)Oc1ccc2c(c1)[C@]1(C)CCN(C)[C@@H]1N2C [Physostigmine]
[3]; Physostigmine 0.2 mg/kg i.p.
  % effect: 20%
[3]; Physostigmine 0.2 mg/kg i.p., control 80.6 ± 9.64
  Survival time, treated animals: 190.63 ± 26.2 s
[4]; [7]
  % effect (animals with latent period of more than 60 sec): 10%
  Latent period: 31.1 ± 13.9 s
[4]; [8]
  % effect (animals with latent period of more than 60 sec): 50%
  Latent period: 44.1 ± 17.69 s
[1]
  influence of antagonists on the SCB activity of extract and Physostigmine: inhibited only by specific anti-cholinergic agents entering the brain, such as Scopolamine and not influenced by antagonists to other receptors
[1]; Test II, 0.10 mg/kg s.c.
  Mean climbing score, animal: 1.39 ± 0.92
[1]; Test III, 0.025 mg/kg s.c.
  Mean climbing score, animal: 5.75 ± 1.28
[1]; Test III, 0.05 mg/kg s.c.
  Mean climbing score, animal: 3.88 ± 2.23
[1]; words
  influence on SCB of mice: reduces the SCB of mice

## CC[C@@H]1C(=O)OC[C@@H]1Cc1cncn1C [Pilocarpine]
[3]; Pilocarpine 2 mg/kg i.p.
  % effect: 30%
[3]; Pilocarpine 2 mg/kg i.p., control 86.7 ± 6.82
  Survival time, treated animals: 178.6 ± 24.8 s
[4]; Test 2, Pilocarpine 5 mg/kg s.c.
  % effect (animals with latent period of more than 60 sec): 10%
[4]; Test 2, Pilocarpine 5 mg/kg s.c., control 15.74 ± 3.47
  Latent period: 24.9 ± 13.32 s

## CN1[C@@H]2C[C@@H](OC(=O)[C@H](CO)c3ccccc3)C[C@H]1[C@@H]1O[C@@H]12 [Scopolamine]
[1]; Test II, 0.25 mg/kg i.p.
  Mean climbing score, animal: 6.63 ± 1.42

## CCN1CCCC1CNC(=O)c1cc(S(N)(=O)=O)ccc1OC (centres unmarked) [Sulpiride]
[1]
  influence of antagonists on the SCB activity of extract and Physostigmine: do not influence the effects of Physostigmine and the extract

## Oc1c(Cl)cc(Cl)c(Cl)c1Cc1c(O)c(Cl)cc(Cl)c1Cl [hexachlorophene, 2,2'-methylene-bis(3,4,6-trichlorophenol)]
[5]
  neurotoxic effect: produces oedematous damage in the brain of many species, including humans

## C[CH2][Sn]([Cl])([CH2]C)[CH2]C [triethyltin chloride]
[6]
  neurotoxic effect: brings about an increase in the water content in the brain of various species and induces specific myelopathy in the nerves
